Our source for the IC50 values is US11420970B1 (NOVARTIS AG, priority 2019, dated 2022).

One test addresses NSD2 [1-1365] (Homo sapiens (Human), UniProt O96028). The test is described as follows: LC-MS/MS-based NSD2 enzymatic assay (SAH production). Particulars: NSD2 biochemical activity, class symbols; read-out: NSD2 IC50. The format is biochemical. The essentials:
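Full-length NSD2 [1-1365] (8 nM final) with 1 μM SAM and 400 nM mouse-liver nucleosome in Tris pH 8.0 buffer; inhibitor preincubated 20 min with enzyme/SAM before nucleosome addition. Reaction 90 min at room temperature, TFA-quenched; SAH quantified by LC-MS/MS against d4-SAH internal standard and SAH standard curve.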

For test [1], the system named is cellular H3K36me2 level in thyroid carcinoma cell line CGTH-W-1 (NSD2 E1099K). The test is described as follows: H3K36me2 cellular ELISA assay in CGTH-W-1 line. In kind it is cell-based. Conditions: Homo sapiens, CGTH-W-1, 72 h, read-out: H3K36me2 ELISA in CGTH-W-1. The essentials: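 CGTH-W-1 thyroid carcinoma cells (NSD2 E1099K gain-of-function) exposed to compound for 72 hours. Histone-bound plates probed for H3K36me2 and total H3 by chemiluminescent ELISA. Viability checked on a parallel plate with CellTiter-Glo.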
(An ELISA detects its analyte on a solid surface through an enzyme-linked reagent.)

The subject of test [2] is cellular H3K36me2 level in multiple myeloma cell line KMS11 (t(4;14)+). The experiment in a line: H3K36me2 cellular ELISA assay in KMS11-Par line. In kind it is cell-based. Particulars: Homo sapiens, KMS-11; KMS11-Par line (t(4;14)+), 72 hours treatment, ELISA; read-out: H3K36me2 ELISA in KMS11-Par. The gist of the method:
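KMS11 cells were seeded a day ahead at 1,250 per well in Opti-MEM with B-27/N2, then treated with compound for 72 h. Histones were acid-extracted with 0.4M HCl, and H3K36me2 and total H3 were read by chemiluminescent ELISA. Viability was checked with CellTiter-Glo on a parallel plate in maintenance media.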

NSD2 [1-1365], sequence (O96028 whole entry): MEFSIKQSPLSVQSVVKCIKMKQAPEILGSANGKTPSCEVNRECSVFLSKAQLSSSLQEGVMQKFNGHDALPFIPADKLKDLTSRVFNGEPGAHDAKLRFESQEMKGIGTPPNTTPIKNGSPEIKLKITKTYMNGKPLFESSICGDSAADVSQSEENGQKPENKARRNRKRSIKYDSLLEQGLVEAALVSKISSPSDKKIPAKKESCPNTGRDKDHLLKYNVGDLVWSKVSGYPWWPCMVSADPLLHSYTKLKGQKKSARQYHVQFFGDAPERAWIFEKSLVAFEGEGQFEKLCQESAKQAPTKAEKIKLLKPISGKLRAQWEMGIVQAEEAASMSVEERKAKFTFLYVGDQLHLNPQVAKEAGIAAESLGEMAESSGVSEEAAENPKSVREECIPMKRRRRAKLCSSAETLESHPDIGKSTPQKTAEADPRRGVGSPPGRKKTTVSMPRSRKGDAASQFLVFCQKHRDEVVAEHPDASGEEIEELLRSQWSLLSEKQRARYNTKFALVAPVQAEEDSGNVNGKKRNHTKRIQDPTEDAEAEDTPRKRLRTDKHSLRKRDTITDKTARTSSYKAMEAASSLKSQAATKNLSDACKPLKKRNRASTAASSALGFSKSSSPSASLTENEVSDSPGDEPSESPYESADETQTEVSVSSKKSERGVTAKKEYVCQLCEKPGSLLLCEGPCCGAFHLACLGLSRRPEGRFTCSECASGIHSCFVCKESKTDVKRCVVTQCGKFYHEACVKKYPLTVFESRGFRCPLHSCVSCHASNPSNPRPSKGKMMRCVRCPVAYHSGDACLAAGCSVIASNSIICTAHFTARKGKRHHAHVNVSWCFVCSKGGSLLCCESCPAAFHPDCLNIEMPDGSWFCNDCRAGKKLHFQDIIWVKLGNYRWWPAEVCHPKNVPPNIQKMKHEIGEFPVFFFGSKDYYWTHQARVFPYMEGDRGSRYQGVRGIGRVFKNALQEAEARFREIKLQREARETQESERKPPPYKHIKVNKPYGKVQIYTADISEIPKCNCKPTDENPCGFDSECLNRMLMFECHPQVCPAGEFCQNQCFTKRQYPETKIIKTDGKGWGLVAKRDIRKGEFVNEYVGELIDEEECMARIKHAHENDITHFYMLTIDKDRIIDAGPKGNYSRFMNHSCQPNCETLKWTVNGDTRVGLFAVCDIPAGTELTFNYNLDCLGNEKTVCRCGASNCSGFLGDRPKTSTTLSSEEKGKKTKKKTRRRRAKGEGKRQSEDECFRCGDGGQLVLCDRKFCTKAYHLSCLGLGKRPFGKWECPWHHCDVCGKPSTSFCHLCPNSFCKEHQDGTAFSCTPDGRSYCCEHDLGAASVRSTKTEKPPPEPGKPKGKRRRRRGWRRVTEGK

Take `Nc1ncnc2c1ncn2Cc1cc(-c2ccc(Cl)cc2F)ncc1N1CCC[C@](N)([C@@H](O)C(F)F)C1` [Example 133, (R)-1-((R)-3-amino-1-(4-((6-amino-9H-purin-9-yl)methyl)-6-(4-chloro-2-fluorophenyl)pyridin-3-yl)piperidin-3-yl)-2,2-difluoroethan-1-ol]: the IC50 is 10 to 1000 nM at NSD2 [1-1365], 177 nM in test [1] and 1610 nM in test [2].

With `Nc1ncnc2c1ncn2Cc1cc(-c2cc(F)c(C(F)F)cc2F)ncc1N1CCC[C@](N)([C@@H](O)C(F)F)C1` [Example 134, (R)-1-((R)-3-amino-1-(4-((6-amino-9H-purin-9-yl)methyl)-6-(4-(difluoromethyl)-2,5-difluorophenyl)pyridin-3-yl)piperidin-3-yl)-2,2-difluoroethan-1-ol], the values for the IC50 (on NSD2 [1-1365]; in test [1]; in test [2]) were 10 to 1000 nM, 601 nM and 830 nM, respectively.

Consider `Nc1ncnc2c1ncn2Cc1cc(-c2ccc(OC(F)F)cc2F)ncc1N1CCC[C@](N)([C@@H](O)C(F)F)C1` [Example 138, (R)-1-((R)-3-amino-1-(4-((6-amino-9H-purin-9-yl)methyl)-6-(4-(difluoromethoxy)-2-fluorophenyl)pyridin-3-yl)piperidin-3-yl)-2,2-difluoroethan-1-ol], for which the IC50 on NSD2 [1-1365] is 10 to 1000 nM; in test [1], 132 nM; in test [2] it was 1570 nM.

For the compound `Nc1ncnc2c1ncn2Cc1cc(-c2ccc(F)c(Cl)c2)ncc1N1CCC[C@](N)([C@H](O)C(F)F)C1` [Example 139, (S)-1-((R)-3-amino-1-(4-((6-amino-9H-purin-9-yl)methyl)-6-(3-chloro-4-fluorophenyl)pyridin-3-yl)piperidin-3-yl)-2,2-difluoroethan-1-ol], the IC50 is 10 to 1000 nM on NSD2 [1-1365], 669 nM in test [1] and 2840 nM in test [2].

In the case of `Nc1ncnc2c1ncn2Cc1cc(-c2ccc(C(F)(F)F)cc2F)ncc1N1CCC[C@](N)([C@@H](O)C(F)F)C1` [Example 141, (R)-1-((R)-3-amino-1-(4-((6-amino-9H-purin-9-yl)methyl)-6-(2-fluoro-4-(trifluoromethyl)phenyl)pyridin-3-yl)piperidin-3-yl)-2,2-difluoroethan-1-ol], the results for the IC50 (at NSD2 [1-1365]; in test [1]; in test [2]) were 10 to 1000 nM, 1150 nM and 7700 nM, respectively.

Turning to `Nc1ncnc2c1ncn2Cc1cc(-c2cc(F)c(O)cc2F)ncc1N1CCC[C@](N)([C@H](O)C(F)F)C1` [Example 144, 4-(5-((R)-3-amino-3-((S)-2,2-difluoro-1-hydroxyethyl)piperidin-1-yl)-4-((6-amino-9H-purin-9-yl)methyl)pyridin-2-yl)-2,5-difluorophenol], the values for the IC50 (on NSD2 [1-1365]; in test [1]; in test [2]) were 10 to 1000 nM, 2580 nM and 10400 nM, respectively.

For the compound `Nc1ncnc2c1ncn2Cc1cc(C2CCCCC2)ncc1N1CCC[C@](N)([C@H](O)C(F)F)C1` [Example 145, (S)-1-((R)-3-amino-1-(4-((6-amino-9H-purin-9-yl)methyl)-6-cyclohexylpyridin-3-yl)piperidin-3-yl)-2,2-difluoroethan-1-ol], the IC50 on NSD2 [1-1365] is 10 to 1000 nM; in test [1] it was 990 nM; in test [2] it was 8110 nM.

`Nc1ncnc2c1ncn2Cc1cc(-c2ccc(F)cc2F)ncc1N1CCC[C@](N)([C@@H](O)C(F)F)C1` [Example 147, (R)-1-((R)-3-amino-1-(4-((6-amino-9H-purin-9-yl)methyl)-6-(2,4-difluorophenyl)pyridin-3-yl)piperidin-3-yl)-2,2-difluoroethan-1-ol]: the IC50 on NSD2 [1-1365] was 10 to 1000 nM; in test [1], 44 nM; in test [2], 2490 nM.

Consider `Nc1ncnc2c1ncn2Cc1cc(-c2ccc(Cl)cc2F)ncc1N1CCC[C@](N)([C@H](O)C(F)F)C1` [Example 148, (S)-1-((R)-3-amino-1-(4-((6-amino-9H-purin-9-yl)methyl)-6-(4-chloro-2-fluorophenyl)pyridin-3-yl)piperidin-3-yl)-2,2-difluoroethan-1-ol], for which the IC50 is 10 to 1000 nM at NSD2 [1-1365], 671 nM in test [1] and 2160 nM in test [2].

In the case of `Nc1ncnc2c1ncn2Cc1cc(-c2cc(F)c(OC(F)F)cc2F)ncc1N1CCC[C@](N)([C@@H](O)C(F)F)C1` [Example 150, (R)-1-((R)-3-amino-1-(4-((6-amino-9H-purin-9-yl)methyl)-6-(4-(difluoromethoxy)-2,5-difluorophenyl)pyridin-3-yl)piperidin-3-yl)-2,2-difluoroethan-1-ol], the IC50 at NSD2 [1-1365] is 10 to 1000 nM; in test [1], 307 nM; in test [2], 1670 nM.

Turning to `Nc1ncnc2c1ncn2Cc1cc(-c2ccc(F)cc2F)ncc1N1CCC[C@](N)([C@H](O)C(F)F)C1` [Example 151, (S)-1-((R)-3-amino-1-(4-((6-amino-9H-purin-9-yl)methyl)-6-(2,4-difluorophenyl)pyridin-3-yl)piperidin-3-yl)-2,2-difluoroethan-1-ol], the IC50 at NSD2 [1-1365] is 10 to 1000 nM; in test [1] it was 842 nM; in test [2], 4190 nM.

Regarding `Nc1ncnc2c1ncn2Cc1cc(-c2ccc(Cl)c(F)c2)ncc1N1CCC[C@](N)([C@H](O)C(F)F)C1` [Example 152, (S)-1-((R)-3-amino-1-(4-((6-amino-9H-purin-9-yl)methyl)-6-(4-chloro-3-fluorophenyl)pyridin-3-yl)piperidin-3-yl)-2,2-difluoroethan-1-ol], the IC50 at NSD2 [1-1365] is 10 to 1000 nM; in test [1], 68.7 nM; in test [2] it was 1770 nM.

With `Nc1ncnc2c1ncn2Cc1cc(-c2ccc(OC(F)F)cc2F)ncc1N1CCC[C@](N)([C@H](O)C(F)F)C1` [Example 153, (S)-1-((R)-3-amino-1-(4-((6-amino-9H-purin-9-yl)methyl)-6-(4-(difluoromethoxy)-2-fluorophenyl)pyridin-3-yl)piperidin-3-yl)-2,2-difluoroethan-1-ol], the results for the IC50 (on NSD2 [1-1365]; in test [1]; in test [2]) were 10 to 1000 nM, 217 nM and 5080 nM, respectively.

Consider `Nc1ncnc2c1ncn2Cc1cc(-c2cc(F)cc(C(F)F)c2F)ncc1N1CCC[C@](N)([C@@H](O)C(F)F)C1` [Example 154, (R)-1-((R)-3-amino-1-(4-((6-amino-9H-purin-9-yl)methyl)-6-(3-(difluoromethyl)-2,5-difluorophenyl)pyridin-3-yl)piperidin-3-yl)-2,2-difluoroethan-1-ol], for which the values for the IC50 (on NSD2 [1-1365]; in test [1]; in test [2]) were 10 to 1000 nM, 2930 nM and 9110 nM, respectively.

Regarding `Nc1ncnc2c1ncn2Cc1cc(-c2ccc(F)cn2)ncc1N1CCC[C@](N)([C@@H](O)C(F)F)C1` [Example 155, (R)-1-((R)-3-amino-1-(4-((6-amino-9H-purin-9-yl)methyl)-5′-fluoro-[2,2′-bipyridin]-5-yl)piperidin-3-yl)-2,2-difluoroethan-1-ol], the values for the IC50 (at NSD2 [1-1365]; in test [1]; in test [2]) were 10 to 1000 nM, 1170 nM and 16400 nM, respectively.

As for `Nc1ncnc2c1ncn2Cc1cc(-c2cc(F)c(F)cc2F)ncc1N1CCC[C@](N)([C@@H](O)C(F)F)C1` [Example 156, (R)-1-((R)-3-amino-1-(4-((6-amino-9H-purin-9-yl)methyl)-6-(2,4,5-trifluorophenyl)pyridin-3-yl)piperidin-3-yl)-2,2-difluoroethan-1-ol], the results for the IC50 (at NSD2 [1-1365]; in test [1]; in test [2]) were 1 to 10 nM, 41 nM and 574 nM, respectively.

`Nc1ncnc2c1ncn2Cc1cc(-c2cc(F)c(F)cc2F)ncc1N1CCC[C@](N)([C@H](O)C(F)F)C1` [Example 157, (S)-1-((R)-3-amino-1-(4-((6-amino-9H-purin-9-yl)methyl)-6-(2,4,5-trifluorophenyl)pyridin-3-yl)piperidin-3-yl)-2,2-difluoroethan-1-ol]: the IC50 was 1 to 10 nM on NSD2 [1-1365], 385 nM in test [1] and 1310 nM in test [2].

Take `Nc1ncnc2c1ncn2Cc1cc(-c2ccc(F)cc2C(F)F)ncc1N1CCC[C@](N)([C@@H](O)C(F)F)C1` [Example 158, (R)-1-((R)-3-amino-1-(4-((6-amino-9H-purin-9-yl)methyl)-6-(2-(difluoromethyl)-4-fluorophenyl)pyridin-3-yl)piperidin-3-yl)-2,2-difluoroethan-1-ol]: the IC50 is 1 to 10 nM at NSD2 [1-1365], 100 nM in test [1] and 802 nM in test [2].

Take `Nc1ncnc2c1ncn2Cc1cc(-c2ccc(F)cc2C(F)F)ncc1N1CCC[C@](N)([C@H](O)C(F)F)C1` [Example 159, (S)-1-((R)-3-amino-1-(4-((6-amino-9H-purin-9-yl)methyl)-6-(2-(difluoromethyl)-4-fluorophenyl)pyridin-3-yl)piperidin-3-yl)-2,2-difluoroethan-1-ol]: the IC50 on NSD2 [1-1365] is 1 to 10 nM; in test [1], 140 nM; in test [2], 1130 nM.

For `COc1cc(F)c(-c2cc(Cn3cnc4c(N)ncnc43)c(N3CCC[C@](N)([C@@H](O)C(F)F)C3)cn2)cc1F` [Example 160, (R)-1-((R)-3-amino-1-(4-((6-amino-9H-purin-9-yl)methyl)-6-(2,5-difluoro-4-methoxyphenyl)pyridin-3-yl)piperidin-3-yl)-2,2-difluoroethan-1-ol], the IC50 at NSD2 [1-1365] is 1 to 10 nM; in test [1], 35 nM; in test [2] it was 434 nM.
